Source: publication PMC10997755, “Discovery of a small-molecule inhibitor that traps Polθ on DNA and synergizes with PARP inhibitors” (Nature Communications, 2024)
Values joined by “and” are separate entries in the source; they are usually repeats but may differ in a detail not shown here. Identical values can stand only once.

Experiments:
Type in all cases: cell-based
[1] = tested on: DLD1 Parental cells; assay: γ-H2AX immunofluorescence; details: DLD1-BRCA2-WT, 5 microM
Procedure: (§1) Cells were plated on six well plates with glass-coverslips and treated with RTX-161 day after plating. Four days after treatment, cells were fixed with 4% (v/v) paraformaldehyde for 20 min at 4 °C, washed with PBS, permeabilized with 0.5% (v/v) Triton X for 10 min and blocked with PBS containing 3% BSA. Cells were incubated with primary antibody overnight at 4 °C followed by 3x washes with PBS and then 1 h incubation with secondary antibody. The incubations were performed in the dark in a humidified chamber. After 3x washing in PBS for 3 min, slides were mounted in 20 ul Prolong antifade with DAPI (LifeTechnologies) to counterstain the nuclei. Cells were visualized and imaged using Nikon A1R Confocal microscope at a 63X objective magnification, and images were analyzed using ImageJ software. For quantification, >50 cells were counted for all conditions from three independent experiments. The primary antibody used for IF was rabbit anti-gamma H2AX [p Ser139] antibody (Bethyl Lab #A700-053) 1:500 dilution in 1% BSA in PBS. The secondary antibody was Goat anti-Rabbit IgG (H + L) Secondary Antibody, DyLight 488 (Thermo #35552) 1:2000 dilution in 1% BSA in PBS.

[2] = tested on: DLD1 BRCA2 -/- cells; assay: γ-H2AX immunofluorescence
Procedure: as §1

[3] = Colony survival, ola with or without RTX-161 (source data sheet Fig. 2 b; cell line not given)
[4] = tested on: CAPAN-1 cells; assay: Clonogenic assay; details: for percent suvival: Capan-1 cells
Method in brief: (§2)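 Cells seeded at low density (300–1000 per well, by plate size and genotype), medium changed every 2 days, colonies grown 10–12 days. Fixed in water:ethanol:acetic acid, stained with 0.5% crystal violet, then counted; IC50 from ≥3 independent experiments, mean ± SEM.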

[5] = tested on: MDA-MB-231 cells; assay: Clonogenic assay; details: for percent suvival: Fig. 2f
Method in brief: as §2

SMILES: CN(C(=O)Oc1c(N2CCN(CCO)C2=O)cc(C(F)(F)F)cc1C(F)(F)F)c1ccc(F)cc1 [RTx-161]
- Percent of positive nuclei, Average ([1]; Average of Expt 1-3 (DMSO 4.28755)): 10.2071%
- Percent of positive nuclei (3 or more than 3 g-H2AX foci) ([1]; single Experiments 1-3): 11.5942% and 12.5984% and 6.429%
- Percent of positive nuclei, Average ([2]; DLD1- BRCA2-null, 5 microM, Average of Expt 1-3 (DMSO 14.884)): 48.7855%
- Percent of positive nuclei (3 or more than 3 g-H2AX foci) ([2]; DLD1- BRCA2-null, 5 microM, single Experiments 1-3): 47.2973% and 43.3071% and 55.7522%
- DNA damage (γ-H2AX phosphorylation) ([2]; immunofluorescence and Western blot, versus parental): selectively caused DNA damage
- percent suvival ([3]; RTX-161 2.5 micro M + ola 11.8 nano M): 48.7273%
- percent suvival ([3]; RTX-161 2.5 micro M + ola 26.60 nano M): 30.5455%
- percent suvival ([3]; RTX-161 2.5 micro M + ola 60.00 nano M): 18.9091%
- percent suvival ([3]; RTX-161 2.5 micro M, ola 0.00 nano M): 75.7576% and 82.5581% and 83.6364%
- percent suvival ([3]; RTX-161 5 micro M + ola 11.8 nano M): 22.5455%
- percent suvival ([3]; RTX-161 5 micro M + ola 26.60 nano M): 14.9091%
- percent suvival ([3]; RTX-161 5 micro M + ola 60.00 nano M): 2.545%
- percent suvival ([3]; RTX-161 5 micro M, ola 0.00 nano M): 46.9697% and 43.6047% and 70.9091%
- percent suvival ([3]; RTX-161 10 micro M + ola 11.8 nano M): 9.818%
- percent suvival ([3]; RTX-161 10 micro M + ola 26.60 nano M): 5.091%
- percent suvival ([3]; RTX-161 10 micro M + ola 60.00 nano M): 0.7273%
- percent suvival ([3]; RTX-161 10 micro M, ola 0.00 nano M): 24.2424% and 34.8837% and 47.6364%
- percent suvival ([4]; RTX-161 2 micro M + ola 0.041 micro M, experiment block 1 (c0-c9)): 16.0976%
- percent suvival ([4]; RTX-161 2 micro M + ola 0.041 micro M, experiment block 2 (c10-c19)): 65.2438%
- percent suvival ([4]; RTX-161 2 micro M + ola 0.041 micro M, experiment block 3 (c20-c29)): 82.5985%
- percent suvival ([4]; RTX-161 2 micro M + ola 0.123 micro M, experiment block 1 (c0-c9)): 6.496%
- percent suvival ([4]; RTX-161 2 micro M + ola 0.123 micro M, experiment block 2 (c10-c19)): 35.6906%
- percent suvival ([4]; RTX-161 2 micro M + ola 0.123 micro M, experiment block 3 (c20-c29)): 71.0728%
- percent suvival ([4]; RTX-161 2 micro M + ola 0.37 micro M, experiment block 1 (c0-c9)): 4.656%
- percent suvival ([4]; RTX-161 2 micro M + ola 0.37 micro M, experiment block 2 (c10-c19)): 25.2846%
- percent suvival ([4]; RTX-161 2 micro M + ola 0.37 micro M, experiment block 3 (c20-c29)): 54.8012%
- percent suvival ([4]; RTX-161 2 micro M + ola 1.11 micro M, experiment block 1 (c0-c9)): 3.463%
- percent suvival ([4]; RTX-161 2 micro M + ola 1.11 micro M, experiment block 2 (c10-c19)): 19.041%
- percent suvival ([4]; RTX-161 2 micro M + ola 1.11 micro M, experiment block 3 (c20-c29)): 23.1621%
- percent suvival ([4]; RTX-161 2 micro M, ola 0.00 micro M, experiment block 1 (c0-c9)): 102.855%
- percent suvival ([4]; RTX-161 2 micro M, ola 0.00 micro M, experiment block 2 (c10-c19)): 79.1879%
- percent suvival ([4]; RTX-161 2 micro M, ola 0.00 micro M, experiment block 3 (c20-c29)): 91.4122%
- percent suvival ([4]; RTX-161 6 micro M + ola 0.041 micro M, experiment block 1 (c0-c9)): 15.5586%
- percent suvival ([4]; RTX-161 6 micro M + ola 0.041 micro M, experiment block 2 (c10-c19)): 45.4723%
- percent suvival ([4]; RTX-161 6 micro M + ola 0.041 micro M, experiment block 3 (c20-c29)): 68.5869%
- percent suvival ([4]; RTX-161 6 micro M + ola 0.123 micro M, experiment block 1 (c0-c9)): 6.432%
- percent suvival ([4]; RTX-161 6 micro M + ola 0.123 micro M, experiment block 2 (c10-c19)): 32.777%
- percent suvival ([4]; RTX-161 6 micro M + ola 0.123 micro M, experiment block 3 (c20-c29)): 59.0951%
- percent suvival ([4]; RTX-161 6 micro M + ola 0.37 micro M, experiment block 1 (c0-c9)): 6.745%
- percent suvival ([4]; RTX-161 6 micro M + ola 0.37 micro M, experiment block 2 (c10-c19)): 21.1222%
- percent suvival ([4]; RTX-161 6 micro M + ola 0.37 micro M, experiment block 3 (c20-c29)): 41.2416%
- percent suvival ([4]; RTX-161 6 micro M + ola 1.11 micro M, experiment block 1 (c0-c9)): 6.364%
- percent suvival ([4]; RTX-161 6 micro M + ola 1.11 micro M, experiment block 2 (c10-c19)): 17.1679%
- percent suvival ([4]; RTX-161 6 micro M + ola 1.11 micro M, experiment block 3 (c20-c29)): 14.1224%
- percent suvival ([4]; RTX-161 6 micro M, ola 0.00 micro M, experiment block 1 (c0-c9)): 109.215%
- percent suvival ([4]; RTX-161 6 micro M, ola 0.00 micro M, experiment block 2 (c10-c19)): 55.8784%
- percent suvival ([4]; RTX-161 6 micro M, ola 0.00 micro M, experiment block 3 (c20-c29)): 75.1407%
- percent suvival ([4]; RTX-161 18 micro M + ola 0.041 micro M, experiment block 1 (c0-c9)): 10.9588%
- percent suvival ([4]; RTX-161 18 micro M + ola 0.123 micro M, experiment block 1 (c0-c9)): 6.3155%
- percent suvival ([4]; RTX-161 18 micro M + ola 0.37 micro M, experiment block 1 (c0-c9)): 7.064%
- percent suvival ([4]; RTX-161 18 micro M + ola 1.11 micro M, experiment block 1 (c0-c9)): 6.846%
- percent suvival ([4]; RTX-161 18 micro M, ola 0.00 micro M, experiment block 1 (c0-c9)): 83.7737%
- combination with Olaparib ([4]; clonogenic survival): significantly reduced cellular resistance to Olaparib
- percent suvival ([5]; Rtx-161 5 microM + Talazoparib 12.5 nano M, experiment block 1 (c0-c7)): 68.1979%
- percent suvival ([5]; Rtx-161 5 microM + Talazoparib 12.5 nano M, experiment block 2 (c8-c15)): 63.9241%
- percent suvival ([5]; Rtx-161 5 microM + Talazoparib 12.5 nano M, experiment block 3 (c16-c23)): 59.2391%
- percent suvival ([5]; Rtx-161 5 microM + Talazoparib 25 nano M, experiment block 1 (c0-c7)): 45.2297%
- percent suvival ([5]; Rtx-161 5 microM + Talazoparib 25 nano M, experiment block 2 (c8-c15)): 50%
- percent suvival ([5]; Rtx-161 5 microM + Talazoparib 25 nano M, experiment block 3 (c16-c23)): 34.2391%
- percent suvival ([5]; Rtx-161 5 microM + Talazoparib 50 nano M, experiment block 1 (c0-c7)): 12.7208%
- percent suvival ([5]; Rtx-161 5 microM + Talazoparib 50 nano M, experiment block 2 (c8-c15)): 18.9873%
- percent suvival ([5]; Rtx-161 5 microM + Talazoparib 50 nano M, experiment block 3 (c16-c23)): 15.7609%
- percent suvival ([5]; Rtx-161 5 microM, Talazoparib 0 nano M, experiment block 1 (c0-c7)): 93.6396%
- percent suvival ([5]; Rtx-161 5 microM, Talazoparib 0 nano M, experiment block 2 (c8-c15)): 98.7342%
- percent suvival ([5]; Rtx-161 5 microM, Talazoparib 0 nano M, experiment block 3 (c16-c23)): 88.587%
- combination with Talazoparib ([5]; clonogenic survival, HR-proficient cells): modestly potentiated the effects of Talazoparib
